Here are results for eight compounds from publication PMC9101373, “Design of DNA Intercalators Based on 4-Carboranyl-1,8-Naphthalimides: Investigation of Their DNA-Binding Ability and Anticancer Activity” (International Journal of Molecular Sciences, 2022).

For assay [1], the system named is calf thymus DNA (ct-DNA). Also on record: method as in PMID 33803403. The conditions noted are these: unmodified mitonafide and pinafide; cited from earlier work.
For assay [2], the system named is HepG2 cells. Also on record: method as in PMID 31776032. The conditions noted are these: read-out: IC50, compound concentration required to inhibit cell growth by 50%; cited from earlier work.
The target in assay [3] is T1, human topoisomerase IIα (Homo sapiens, UniProt P11388).
T1 construct: purchased Inspiralis (Norwich, UK)
Nature of the assay: Human topoisomerase IIα relaxation assay. The conditions noted are these: for IC50: supercoiled pBR322, concentration range 0.1–100 µM, read-out: IC50, compound concentration required to inhibit the activity of this enzyme by 50%. Type of assay: biochemical. On the procedure:
Therefore, we subjected these compounds to further detailed analyses of inhibitory potential within the concentration range of 0.1–100 µM (Figure S301, ESI) to calculate IC50 values. IC50 refers to the compound concentration (µM) required to inhibit the activity of the topoisomerase enzyme by 50%.
The Human Topoisomerase II-alpha Relaxation Assay Kit was purchased from Inspiralis (Norwich, UK). The Topo IIα inhibition assay was performed as described by the manufacturer. […] Next, TopoIIα (1 U) was added, and the reaction mixture was incubated at 37 °C for an additional 45 min. The reaction was terminated by addition of the STEB buffer (40 % (w/v) sucrose, Tris-HCl (100 mM, pH 8), EDTA (1 mM), bromophenol blue (0.5 mg/mL)). The products were analyzed by electrophoresis using agarose gel (1%) in TAE buffer at 70 V for 2 h, followed by ethidium bromide staining. […] The percentage of Topo-II alpha activity inhibition was calculated by densitometric quantification (Quantity One software, Bio-Rad). The occurrence of a band representing supercoiled DNA on an agarose gel indicated the inhibition of enzyme activity.

Assay [4] deals with HepG2 cells. Further details: method as in PMID 31776032. The conditions noted are these: cited from earlier work.
Assay [5] has as its system calf thymus DNA (ct-DNA). Nature of the assay: Melting temperature (Tm) measurements of ct-DNA, thermal denaturation. The format is binding. The conditions noted are these: r = [compound]/[ct-DNA] = 0.3; pH 7.0, 20 mM cacodylate buffer; Tm of ct-DNA alone 74 °C. On the procedure: The melting temperature (Tm) of DNA is defined as the temperature at which 50% of the DNA is in form of single strands forming randomly coiled structures. DNA melting is measured by the absorbance of UV light (260 nm) by the DNA solution, where the amount of UV light absorbed is proportional to the fraction of non-bonded base pairs. The majority of DNA-binding small molecules known thus far stabilize duplex DNA against heat denaturation. A high, drug-induced increase in the Tm of DNA is generally viewed as an excellent criterion to select DNA ligands and is a common feature of several anticancer drugs such as intercalators (a significant increase in Tm = 3–8 °C is observed for strong intercalation) and alkylators. The reverse situation (destabilization of DNA to facilitate its denaturation) may be an attractive option to identify therapeutic agents acting on the DNA structure.
Our study conducted Tm measurement to estimate the impact of 1,8-naphthalimides bearing the carborane cluster on DNA stabilization (Table 1, Figures S249–S253, ESI).
The measurements were performed by adding aliquots of DMSO stock solution of the tested compounds to the buffer solution (pH 7.0, 20 mM, cacodylate buffer, DMSO content of the final solution = 0.24–0.36%). The Tm curves were collected at r = 0.3 (r = [compound]/[ct-DNA]) to assure the dominant binding mode. Thermal melting curves were determined by following the absorption change at 260 nm as a function of temperature by using a GBC Cintra10 UV–vis spectrometer (Dandenong, Australia) equipped with a GBC Thermocell Peltier Power Supply (Dandenong, Australia) using a 1 cm path length cell. The absorbance of the samples was monitored at 260 nm from 30 to 90 °C (95 °C for compounds 54–61) with a heating rate of 1 °C/min. Tm values are the midpoints or the transition curves determined from the maximum of the first derivative. The ΔTm values were calculated by subtracting the Tm of the free nucleic acid from the Tm of the sample. Every Tm value reported in this study was average at least three measurements. The error in Tm was 0.5 °C.

In assay [6] the test system is calf thymus DNA (ct-DNA). Nature of the assay: UV–vis absorption titration with ct-DNA, binding constant Kb. The conditions noted are these: 10 µM compound, ct-DNA 1.25–15 µM. An excerpt: The interaction of 1,8-naphthalimides bearing carborane clusters with ct-DNA was also studied by UV–vis absorption titration to better understand the mode of interaction and binding strength. For compounds interacting with DNA by intercalation, bathochromic and hypochromic effects are observed in the absorption spectra. The spectral changes observed in the electronic absorption of 6–11, 16–19, 36–43, and 54–61 in the absence and presence of ct-DNA are illustrated in Figures S271–S296 (ESI). Progressive addition of ct-DNA at the concentration of 1.25–15 µM to a fixed amount of modified naphthalic anhydride or naphthalimide (10 µM concentration) decreased absorbance for almost all the tested modified conjugates, except conjugates 14, 15, and 22–27 for which changes in absorbance were not observed. […] Hypochromicity (10–56%) was also observed for all conjugates, with the highest value for compound 40.
To compare the DNA-binding strength of the tested conjugates, we calculated the binding constant Kb, as described in the Materials and Methods section. […] For conjugates 14, 15, and 22–27, the Kb value could not be determined due to the lack of noticeable changes in the UV spectra.
The measurements were performed by adding aliquots of DMSO stock solution of the tested compounds to the buffer solution (pH 7.4, 20 mM, 50 mM NaCl, Tris-HCl buffer, DMSO content of the final solutions = 0.40–0.61%) to the final concentration of 10 µM. The tested compounds were incubated 5 min, with increasing concentrations ranging from 0 to 15 µM of ct-DNA at 37 °C, then the UV–vis absorption spectra, between 310 and 500 nm (310–550 nm for compounds 36–43 and 54–61), were recorded using a GBC Cintra10 UV–vis spectrometer (Dandenong, Australia) equipped with a GBC Thermocell Peltier Power Supply (Dandenong, Australia) using a 1 cm path length cell. The binding constant was calculated according to the following equation [53]: A0/A−A0=εG/εH−G−εG +εG/εH−G−εG ×1/Kb[DNA] where Kb is the binding constant, A0 and A are the absorbance of the free tested compound, and the apparent one, εG and εH−G are their coefficient, respectively, and [DNA] is the concentration of [DNA] in the base pair. The slope to intercept ratio of the plot between A0/A − A0 versus 1/[DNA] yielded the binding constant.

For assay [7], the system named is HepG2 cells. Nature of the assay: In vitro cytotoxic activity, MTT assay. The format is cell-based, human. The conditions noted are these: 24 h treatment, read-out: IC50, compound concentration required to inhibit cell growth by 50%. On the procedure:
The obtained 1,8-naphthalimide–carborane conjugates were investigated for their in vitro antitumor activity by examining their cytotoxic effects using the MTT tetrazolium dye assay against the human cancer cell line HepG2 established from hepatocellular carcinoma. IC50 refers to the drug concentration (µM) required to inhibit cell growth by 50%.
The cytotoxic properties of the synthesized compounds were evaluated using the human hepatocellular carcinoma cell line HepG2 established from hepatocellular carcinoma. The HepG2 cell line was purchased from ECACC (Salisbury, UK). Cells were grown in EMEM medium (Corning®) supplemented with 10% heat-inactivated fetal bovine serum (FBS) (Corning®) and antibiotics (Corning®), at 37 °C in a 5% CO2 atmosphere. Upon reaching 80–90% confluency, cells were detached with the trypsin (Corning®) and transferred into 96-well microplates at a density of 12 × 10^3. After overnight incubation at 37 °C in a humidified atmosphere containing 5% CO2, the cells were treated for the next 24 h with compounds. The stock solution of each compound was prepared in DMSO at 10 mM. The cytotoxicity was evaluated by the MTT assay. […] Subsequently, the medium was aspirated and replaced with 3-(4,5-dimethylthiazol-2-yl)-2,5-diphenyltetrazolium bromide (MTT) dye solution (50 µL, 0.5 mg/mL). After 3 h incubation, the resulting MTT formazan crystals were dissolved in DMSO (100 µL). To ensure the complete dissolution of formazan, the plates were shaken on an orbital microplate shaker at 1000 rpm for 15 min (Thermoshaker NeoLab 7–0055, Bionovo, Legnica, Poland). The optical density of each well was then measured on a VICTOR Nivo multimode plate reader at a wavelength of 570 nm. Each experiment consisted of 6 replications of each concentration, and each experiment was repeated three times independently. The results were calculated as a percentage of control group viability. The IC50 values were determined using a non-linear regression from the plot of % viability against log dose of compounds by using GraphPad Prism 6.0 software (GraphPad, San Diego, CA, USA).

Read-outs that look alike come from different tables or passages of the source.

T1 sequence (P11388 whole entry): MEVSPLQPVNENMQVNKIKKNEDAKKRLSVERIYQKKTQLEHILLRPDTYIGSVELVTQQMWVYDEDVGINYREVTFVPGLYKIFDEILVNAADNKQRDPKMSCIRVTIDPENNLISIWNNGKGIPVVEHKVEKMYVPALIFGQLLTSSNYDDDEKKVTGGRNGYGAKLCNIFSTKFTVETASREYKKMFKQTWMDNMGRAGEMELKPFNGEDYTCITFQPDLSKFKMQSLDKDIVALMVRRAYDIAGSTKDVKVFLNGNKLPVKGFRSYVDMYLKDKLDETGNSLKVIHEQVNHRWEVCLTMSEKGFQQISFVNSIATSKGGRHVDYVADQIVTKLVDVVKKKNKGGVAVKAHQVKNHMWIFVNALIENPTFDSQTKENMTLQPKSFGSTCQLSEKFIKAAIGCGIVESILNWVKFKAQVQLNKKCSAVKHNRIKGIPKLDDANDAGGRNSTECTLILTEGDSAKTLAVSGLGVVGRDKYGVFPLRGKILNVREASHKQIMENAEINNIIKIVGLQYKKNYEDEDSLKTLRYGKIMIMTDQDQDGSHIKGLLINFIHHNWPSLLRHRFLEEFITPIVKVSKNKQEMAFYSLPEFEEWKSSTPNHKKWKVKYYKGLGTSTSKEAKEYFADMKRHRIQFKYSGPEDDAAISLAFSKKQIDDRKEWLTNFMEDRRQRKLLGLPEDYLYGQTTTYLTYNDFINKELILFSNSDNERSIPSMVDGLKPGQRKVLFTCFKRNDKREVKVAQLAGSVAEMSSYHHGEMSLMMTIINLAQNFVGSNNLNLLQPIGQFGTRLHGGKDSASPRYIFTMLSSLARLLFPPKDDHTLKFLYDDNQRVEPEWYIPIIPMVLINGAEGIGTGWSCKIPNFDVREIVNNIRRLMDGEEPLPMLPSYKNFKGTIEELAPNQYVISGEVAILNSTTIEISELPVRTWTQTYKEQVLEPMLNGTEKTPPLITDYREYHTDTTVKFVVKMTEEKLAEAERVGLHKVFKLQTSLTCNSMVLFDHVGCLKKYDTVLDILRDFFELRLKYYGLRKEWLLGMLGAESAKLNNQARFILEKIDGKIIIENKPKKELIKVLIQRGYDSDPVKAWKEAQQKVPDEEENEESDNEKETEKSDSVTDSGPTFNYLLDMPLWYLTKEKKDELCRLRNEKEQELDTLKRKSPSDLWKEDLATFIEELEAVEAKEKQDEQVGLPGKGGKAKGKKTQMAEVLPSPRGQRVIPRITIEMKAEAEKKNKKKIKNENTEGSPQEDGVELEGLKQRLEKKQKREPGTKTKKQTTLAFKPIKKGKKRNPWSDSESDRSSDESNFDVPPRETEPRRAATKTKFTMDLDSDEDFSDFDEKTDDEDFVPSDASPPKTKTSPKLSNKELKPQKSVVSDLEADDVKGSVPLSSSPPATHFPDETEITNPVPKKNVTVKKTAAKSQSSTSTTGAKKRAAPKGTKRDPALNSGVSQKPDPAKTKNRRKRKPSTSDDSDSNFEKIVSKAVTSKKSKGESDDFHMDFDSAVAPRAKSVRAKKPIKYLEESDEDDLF

Turning to `O=C1c2cccc3cc([N+](=O)[O-])cc(c23)C(=O)N1CCN1CCCC1` [Pinafide, pinafide], the “ΔTm ct-DNA” value in assay [1] was 6.50 °C. In assay [2], the IC50 was 1.23 µM.
Consider `CN(C)CCN1C(=O)c2cccc3cc([N+](=O)[O-])cc(c23)C1=O` [Mitonafide, mitonafide], for which the IC50 in assay [3] was 5.13 µM; in assay [2] it was less than 1 µM. Also, the “ΔTm ct-DNA” value in assay [1] was 5.17 °C. In addition, the “8-oxo-dG level in cellular DNA” value in assay [4] is “Mitonafide—28.24 ± 0.18 per 10^6 dG [8]”.
As for “N-[2-(N-Pyrrolidinyl)ethyl]-4-{1-[3-(1,7-dicarba-closo-dodecaborane-1-yl)propyl]-1H-1,2,3-triazol-4-yl}-1,8-naphthalimide [Compound 11]”, the “ΔTm ct-DNA” value in assay [5] was determined as 0.33 °C. In assay [6], the bathochromic shift was 1–2 nm. Moreover, the IC50 in assay [7] came out at 14.6 ± 0.43 µM.
“4-{1-[3-(1,7-Dicarba-closo-dodecaborane-1-yl)propyl]-1H-1,2,3-triazol-4-yl}methoxy-1,8-naphthalic anhydride [Compound 15]”: the “ΔTm ct-DNA” value in assay [5] came to 0.00 °C. For the same compound, in assay [7], the IC50 was determined as 38.1 ± 2.85 µM. Also, in assay [3], the “fold less active than mitonafide (Topo IIα IC50)” value is reported as 12 fold and the IC50 was 61.6 µM.
For the compound “N-[2-(N-Pyrrolidinyl)ethyl]-4-[(2-(3-(1,2-dicarba-closo-dodecaborane-1-yl)propanamido)ethyl)amino]-1,8-naphthalimide [Compound 38]”, the “ΔTm ct-DNA” value in assay [5] worked out at 1.00 °C. The IC50 in assay [7] stood at 10.1 ± 1.85 µM; in assay [3], 2.81 µM. For the same compound, in assay [3], the “fold less active than compound 8 (Topo IIα IC50)” value is given as approximately 5 fold.
“N-[2-(N-Pyrrolidinyl)ethyl]-4-{1-[3-(1,7-dicarba-closo-dodecaborane-1-yl)propyl]-1H-1,2,3-triazol-4-yl}methoxy-1,8-naphthalimide [Compound 19]”: in assay [5], the “ΔTm ct-DNA” value amounted to 0.67 °C. Moreover, the bathochromic shift in assay [6] is reported as 1–2 nm. Also, the IC50 in assay [7] was 15 ± 0.57 µM.
In the case of “4-{1-[3-(1,7-Dicarba-closo-dodecaborane-1-yl)propyl]-1H-1,2,3-triazol-4-yl}-1,8-naphthalic anhydride [Compound 7]”, the “ΔTm ct-DNA” value in assay [5] was 0.00 °C. Moreover, the results for the IC50 in assay [7] and in assay [3] were 136 ± 4.24 µM and 8.78 µM, respectively.
In the case of “N-[2-(N-Pyrrolidinyl)ethyl]-4-{1-[3-(1,2-dicarba-closo-dodecaborane-1-yl)propyl]-1H-1,2,3-triazol-4-yl}methoxy-1,8-naphthalimide [Compound 17]”, the “ΔTm ct-DNA” value in assay [5] came to 0.67 °C. In addition, in assay [6], the bathochromic shift is listed as 1–2 nm. In addition, in assay [7], the IC50 was 36.9 ± 3.72 µM.
